Laboratory results: patent WO2015077660A1, “Enzyme reactor system enabling enhanced enzymatic digestion, analyte solubility and improved mass spectrometric compatibility” (priority 2013, dated 2014)

What was measured:
trypsin = experiment: Insulin digestion in immobilized enzyme reactor, buffer screening (Table 7); format: biochemical, porcine; conditions: IMER, 70°C, 60 s
porcine trypsin = system: T1, porcine trypsin; experiment: Insulin digestion by trypsin in solution, buffer screening (Table 9); format: biochemical; conditions: 37°C, 18 h
T1 construct: purchased

## CO [MeOH, methanol]
trypsin; 5%
  Digested: 1511720
  Peptide: 627591
  Undigested: 2902781
trypsin; 10%
  Digested: 1001203
  Peptide: 417070
  Undigested: 3946896
trypsin; 15%
  Digested: 675569
  Peptide: 277958
  Undigested: 5012221
trypsin; 20%
  Digested: 518131
  Peptide: 213935
  Undigested: 5268985
Porcine trypsin; 5%
  Digested: 1415794
  Peptide: 576911
  Undigested: 5318134
Porcine trypsin; 10%
  Digested: 216568
  Peptide: 88569
  Undigested: 4800365
Porcine trypsin; 15%
  Digested: 1700395
  Peptide: 666807
  Undigested: 4218905
Porcine trypsin; 20%
  Digested: 1986863
  Peptide: 756073
  Undigested: 3394642

## [Cl-].[Na+] [NaCl]
trypsin; 0.1M
  Digested: 2262987
  Peptide: 925368
  Undigested: 1557233
trypsin; 0.25M
  Digested: 2119184
  Peptide: 866812
  Undigested: 2102900
trypsin; 0.5M
  Digested: 2146822
  Peptide: 862093
  Undigested: 1679944
trypsin; 1M
  Digested: 2363025
  Peptide: 944511
  Undigested: 1205692
trypsin; 2M
  Digested: 2660004
  Peptide: 966823
  Undigested: 332026
Porcine trypsin; 0.1M
  Digested: 1527956
  Peptide: 648564
  Undigested: 3295178
Porcine trypsin; 0.25M
  Digested: 1178089
  Peptide: 484049
  Undigested: 3432057
Porcine trypsin; 0.5M
  Digested: 884946
  Peptide: 350436
  Undigested: 4517343
Porcine trypsin; 1M
  Digested: 670170
  Peptide: 249834
  Undigested: 4981512
Porcine trypsin; 2M
  Digested: 378641
  Peptide: 111600
  Undigested: 4745627

## C[C@H](CCC(=O)[O-])[C@H]1CC[C@H]2[C@@H]3CC[C@@H]4C[C@H](O)CC[C@]4(C)[C@H]3C[C@H](O)[C@]12C.[Na+] [SDC, sodium deoxycholate]
trypsin; 0.1%
  Digested: 296346
  Peptide: 101770
  Undigested: 4216641
trypsin; 0.2%
  Digested: 94589
  Peptide: 30902
  Undigested: 5010947
trypsin; 0.5%
  Digested: 12088
  Peptide: 1351
  Undigested: 1648635
trypsin; 1%
  Digested: 8134
  Peptide: 1275
  Undigested: 284843
Porcine trypsin; 0.1%
  Digested: 1284656
  Peptide: 5961
  Undigested: 3123245
Porcine trypsin; 0.2%
  Digested: 12332
  Peptide: 480241
  Undigested: 29962
Porcine trypsin; 0.5%
  Digested: 114517
  Peptide: 361200
  Undigested: 499326
Porcine trypsin; 1%
  Digested: 124131
  Peptide: 239833
  Undigested: 1149062

## OCC(F)(F)F [TFE]
trypsin; 5%
  Digested: 513982
  Peptide: 208344
  Undigested: 4502764
trypsin; 10%
  Digested: 95904
  Peptide: 39996
  Undigested: 5112793
trypsin; 15%
  Digested: 40955
  Peptide: 18047
  Undigested: 5055881
trypsin; 20%
  Digested: 26014
  Peptide: 9756
  Undigested: 5626809
Porcine trypsin; 5%
  Digested: 710737
  Peptide: 271046
  Undigested: 4417966
Porcine trypsin; 10%
  Digested: 512715
  Peptide: 201962
  Undigested: 4499811
Porcine trypsin; 15%
  Digested: 571716
  Peptide: 224520
  Undigested: 4785656
Porcine trypsin; 20%
  Digested: 661078
  Peptide: 253234
  Undigested: 4907160

## NC(CO)(CO)CO [Tris]
trypsin; 0.05M
  Digested: 2479332
  Undigested: 893529
trypsin; 0.1M
  Digested: 2540889
  Undigested: 990996
trypsin; 0.25M
  Digested: 2440181
  Undigested: 1291934
trypsin; 0.5M
  Digested: 2205308
  Peptide: 879474
  Undigested: 1490447
trypsin; 1M
  Digested: 1923103
  Peptide: 745060
  Undigested: 2177969
Porcine trypsin; 0.05M
  Digested: 1995427
  Peptide: 860551
  Undigested: 3125626
Porcine trypsin; 0.1M
  Digested: 2524942
  Peptide: 1101647
  Undigested: 2122289
Porcine trypsin; 0.25M
  Digested: 3462464
  Peptide: 1564913
  Undigested: 997441
Porcine trypsin; 0.5M
  Digested: 3218135
  Peptide: 1297337
  Undigested: 780101
Porcine trypsin; 1M
  Digested: 3458079
  Peptide: 1431917
  Undigested: 1156801

## NC(N)=O [Urea]
trypsin; 0.5M
  Digested: 1816572
  Peptide: 715848
  Undigested: 2285541
trypsin; 1M
  Digested: 1448998
  Peptide: 555954
  Undigested: 2812910
trypsin; 2M
  Digested: 905391
  Peptide: 349854
  Undigested: 3812799
trypsin; 4M
  Digested: 285873
  Peptide: 104200
  Undigested: 4609299
trypsin; 6M
  Digested: 139668
  Peptide: 49088
  Undigested: 4675789
trypsin; 8M
  Digested: 43865
  Peptide: 13979
  Undigested: 4151508
Porcine trypsin; 0.5M
  Digested: 1220686
  Peptide: 538728
  Undigested: 3763696
Porcine trypsin; 1M
  Digested: 1145096
  Peptide: 511139
  Undigested: 2972094
Porcine trypsin; 2M
  Digested: 1106227
  Peptide: 490181
  Undigested: 3034093
Porcine trypsin; 4M
  Digested: 860501
  Peptide: 389932
  Undigested: 2877527
Porcine trypsin; 6M
  Digested: 529552
  Peptide: 301136
  Undigested: 3250299
Porcine trypsin; 8M
  Digested: 156492
  Peptide: 69027
  Undigested: 2197015
